How the values were obtained:
Assay type in all cases: cell-based
Settings in all cases: human
[1] = in vitro cytotoxicity bioassay, MCF-7
Method: (§1) These two experiments were conducted according to reference procedures.

[2] = in vitro cytotoxicity bioassay, MDA-MB-435
Method: as §1

[3] = in vitro cytotoxicity bioassay, HepG2
Method: as §1

[4] = in vitro cytotoxicity bioassay, PC-3
Method: as §1

[5] = MCF-7 cells (breast cancer cell line)
[6] = MDA-MB-435 cells (breast cancer cell line)
[7] = HepG2 cells (hepatoma cell line)
[8] = PC-3 cells (prostatic cancer cell line)

Measured: IC50

C=C1C2(CC(O)C(=O)OC2(C)C)CC(OC(C)=O)C2(C)C13OC14C(=O)OC(C)(C(=C)C12C(=O)OC4C)C3OC(C)=O (stereo not shown) [Compound 1, 2-hydroacetoxydehydroaustin]
> 50 µM: [1]; [5] | [2]; [6] | [3]; [7] | [4]; [8]

C=C1[C@]2(C)C(=O)[C@]3(O)[C@@H](C)OC(=O)[C@]13[C@@]1(C)CC[C@@]3(C=CC(=O)OC3(C)C)C(C)=C1[C@@H]2OC(C)=O [Compound 2, 11-acetoxyisoaustinone]
> 50 µM: [1]; [5] | [2]; [6] | [3]; [7] | [4]; [8]

C=C1[C@@]2(C)CC3=C(C)[C@]4(C=CC(=O)OC4(C)C)CC[C@]3(C)[C@@]13C(=O)O[C@H](C)[C@@]3(O)C2=O [Compound 3, isoaustinol]
> 50 µM: [1]; MCF-7 | [2]; MDA-MB-435 | [3]; HepG2 | [4]; PC-3

C=C1[C@@]23C(=O)O[C@H](C)[C@@]2(O)C(=O)O[C@]1(C)[C@@H](OC(C)=O)C1=C(C)[C@]2(C=CC(=O)OC2(C)C)CC[C@@]13C [Compound 4, austin]
> 50 µM: [1]; MCF-7 | [2]; MDA-MB-435 | [3]; HepG2 | [4]; PC-3

C=C1[C@@]23C(=O)O[C@H](C)[C@@]2(O)C(=O)O[C@]1(C)[C@@H](O)C1=C(C)[C@]2(C=CC(=O)OC2(C)C)CC[C@@]13C [Compound 5, austinol]
> 50 µM: [1]; [5] | [2]; [6] | [3]; [7] | [4]; [8]

C=C1[C@@]23C(=O)O[C@H](C)[C@]24O[C@@]2(C(=C)[C@]5(C=CC(=O)OC5(C)C)C[C@@H](OC(C)=O)[C@]32C)[C@H](OC(C)=O)[C@@]1(C)OC4=O [Compound 6, acetoxydehydroaustin]
> 50 µM: [1]; MCF-7 | [2]; MDA-MB-435 | [3]; HepG2 | [4]; PC-3

C=C1[C@@]23C(=O)O[C@H](C)[C@]24O[C@@]2(C(=C)[C@]5(C=CC(=O)OC5(C)C)CC[C@]32C)[C@H](OC(C)=O)[C@@]1(C)OC4=O [Compound 7, dehydroaustin]
> 50 µM: [1]; MCF-7 | [2]; MDA-MB-435 | [3]; HepG2 | [4]; PC-3

C=C1[C@@]23C(=O)O[C@H](C)[C@]24O[C@@]2(C(=C)[C@]5(C=CC(=O)OC5(C)C)CC[C@]32C)[C@H](O)[C@@]1(C)OC4=O [Compound 8, dehydroaustinol]
> 50 µM: [1]; MCF-7 | [2]; MDA-MB-435 | [3]; HepG2 | [4]; PC-3

C=C1[C@@]2(C)C[C@H]3[C@]4(C)C=CC(=O)OC(C)(C)[C@H]4CC[C@]3(C)[C@]1(C(=O)OC)C(=O)[C@@](C)(O)C2=O [Compound 9, preaustinoid A2]
> 50 µM: [1]; [5] | [2]; [6] | [3]; [7] | [4]; [8]

C=C1[C@@]23C(=O)O[C@H](C)[C@]24O[C@@]2(C(=C)[C@]5(CCC(=O)OC5(C)C)C[C@@H](OC(C)=O)[C@]32C)[C@H](OC(C)=O)[C@@]1(C)OC4=O [Compound 10, 1,2-dihydro-acetoxydehydroaustin B]
> 50 µM: [1]; [5] | [2]; [6] | [3]; [7] | [4]; [8]

From paper PMC6154586 (Molecules : A Journal of Synthetic Chemistry and Natural …, 2017)
